Results as given in patent US6608086B2, “Dihydropyridines and new uses thereof” (Synaptic Pharmaceutical Corporation, priority 1993, dated 2003).
Structures can show the parent of a compound that is named as a salt. Where two headings read alike, the source gives them in different places.

Assays:
[1] = molecular target: T1, α1C Human Adrenergic Receptor (Homo sapiens, UniProt P35348); experiment: Radioligand binding, [3H]prazosin, cloned human α1C adrenergic receptor
T1 construct: The entire coding region of α1C (1401 bp); expressed in transfected cells
T1 sequence (P35348 1-466): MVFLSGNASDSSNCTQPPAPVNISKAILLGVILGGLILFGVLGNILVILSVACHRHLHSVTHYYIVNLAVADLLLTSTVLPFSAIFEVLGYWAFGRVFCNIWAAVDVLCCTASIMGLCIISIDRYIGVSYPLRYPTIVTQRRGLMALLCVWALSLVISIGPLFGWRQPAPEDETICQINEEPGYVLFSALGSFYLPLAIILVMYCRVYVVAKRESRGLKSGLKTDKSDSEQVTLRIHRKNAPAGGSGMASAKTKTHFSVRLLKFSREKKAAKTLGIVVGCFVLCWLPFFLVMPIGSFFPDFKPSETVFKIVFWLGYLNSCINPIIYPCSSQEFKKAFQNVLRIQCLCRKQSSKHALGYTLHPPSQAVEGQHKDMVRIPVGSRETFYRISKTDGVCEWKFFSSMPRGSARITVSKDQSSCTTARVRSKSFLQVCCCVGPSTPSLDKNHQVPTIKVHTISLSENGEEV
Method in brief: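 Stably transfected mouse LM(tk−) fibroblast membranes bearing the cloned human α1C adrenoceptor served as receptor source. Specific binding was taken as the portion of 0.5 nM [3H]prazosin displaceable by 10 μM phentolamine after 20 min at 37° C., pH 7.5, in Mg2+/ascorbate-containing Tris buffer.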

[2] = molecular target: T2, α2C receptor (Homo sapiens, UniProt P18825); experiment: Competition binding, [3H]rauwolscine, human α2C receptor
T2 construct: host or cells: LM(tk-) cells, line L-α2C
T2 sequence (P18825 1-462): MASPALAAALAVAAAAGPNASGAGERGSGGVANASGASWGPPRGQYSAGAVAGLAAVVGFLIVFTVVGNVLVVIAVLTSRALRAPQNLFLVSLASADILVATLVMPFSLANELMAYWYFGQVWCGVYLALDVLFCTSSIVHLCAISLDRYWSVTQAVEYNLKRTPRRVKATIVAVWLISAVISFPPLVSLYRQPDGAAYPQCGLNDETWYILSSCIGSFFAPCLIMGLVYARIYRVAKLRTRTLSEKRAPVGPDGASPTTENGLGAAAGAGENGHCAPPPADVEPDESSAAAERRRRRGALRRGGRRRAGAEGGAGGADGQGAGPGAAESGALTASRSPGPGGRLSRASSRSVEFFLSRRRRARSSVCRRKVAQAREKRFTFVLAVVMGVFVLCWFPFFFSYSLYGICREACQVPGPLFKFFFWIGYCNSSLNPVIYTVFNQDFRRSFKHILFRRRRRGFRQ
Method in brief: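 Lysates of LM(tk−) cells stably expressing each α2 subtype were suspended in 25 mM glycylglycine buffer (pH 7.6 at room temperature). Equilibrium competition binding used 0.5 nM [3H]rauwolscine, with nonspecific binding defined by 10 μM phentolamine; bound radioligand was separated by GF/B filtration.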

[3] = molecular target: T3, L-type calcium channel (Rattus norvegicus, UniProt P22002); experiment: Competition binding of [3H]nitrendipine to membrane fragments of rat cardiac muscle
T3 construct: membrane fragments of rat cardiac muscle; from tissue; host or cells: rat cardiac muscle membranes
T3 sequence (P22002 whole entry, other chains not shown, the tested form may be a part): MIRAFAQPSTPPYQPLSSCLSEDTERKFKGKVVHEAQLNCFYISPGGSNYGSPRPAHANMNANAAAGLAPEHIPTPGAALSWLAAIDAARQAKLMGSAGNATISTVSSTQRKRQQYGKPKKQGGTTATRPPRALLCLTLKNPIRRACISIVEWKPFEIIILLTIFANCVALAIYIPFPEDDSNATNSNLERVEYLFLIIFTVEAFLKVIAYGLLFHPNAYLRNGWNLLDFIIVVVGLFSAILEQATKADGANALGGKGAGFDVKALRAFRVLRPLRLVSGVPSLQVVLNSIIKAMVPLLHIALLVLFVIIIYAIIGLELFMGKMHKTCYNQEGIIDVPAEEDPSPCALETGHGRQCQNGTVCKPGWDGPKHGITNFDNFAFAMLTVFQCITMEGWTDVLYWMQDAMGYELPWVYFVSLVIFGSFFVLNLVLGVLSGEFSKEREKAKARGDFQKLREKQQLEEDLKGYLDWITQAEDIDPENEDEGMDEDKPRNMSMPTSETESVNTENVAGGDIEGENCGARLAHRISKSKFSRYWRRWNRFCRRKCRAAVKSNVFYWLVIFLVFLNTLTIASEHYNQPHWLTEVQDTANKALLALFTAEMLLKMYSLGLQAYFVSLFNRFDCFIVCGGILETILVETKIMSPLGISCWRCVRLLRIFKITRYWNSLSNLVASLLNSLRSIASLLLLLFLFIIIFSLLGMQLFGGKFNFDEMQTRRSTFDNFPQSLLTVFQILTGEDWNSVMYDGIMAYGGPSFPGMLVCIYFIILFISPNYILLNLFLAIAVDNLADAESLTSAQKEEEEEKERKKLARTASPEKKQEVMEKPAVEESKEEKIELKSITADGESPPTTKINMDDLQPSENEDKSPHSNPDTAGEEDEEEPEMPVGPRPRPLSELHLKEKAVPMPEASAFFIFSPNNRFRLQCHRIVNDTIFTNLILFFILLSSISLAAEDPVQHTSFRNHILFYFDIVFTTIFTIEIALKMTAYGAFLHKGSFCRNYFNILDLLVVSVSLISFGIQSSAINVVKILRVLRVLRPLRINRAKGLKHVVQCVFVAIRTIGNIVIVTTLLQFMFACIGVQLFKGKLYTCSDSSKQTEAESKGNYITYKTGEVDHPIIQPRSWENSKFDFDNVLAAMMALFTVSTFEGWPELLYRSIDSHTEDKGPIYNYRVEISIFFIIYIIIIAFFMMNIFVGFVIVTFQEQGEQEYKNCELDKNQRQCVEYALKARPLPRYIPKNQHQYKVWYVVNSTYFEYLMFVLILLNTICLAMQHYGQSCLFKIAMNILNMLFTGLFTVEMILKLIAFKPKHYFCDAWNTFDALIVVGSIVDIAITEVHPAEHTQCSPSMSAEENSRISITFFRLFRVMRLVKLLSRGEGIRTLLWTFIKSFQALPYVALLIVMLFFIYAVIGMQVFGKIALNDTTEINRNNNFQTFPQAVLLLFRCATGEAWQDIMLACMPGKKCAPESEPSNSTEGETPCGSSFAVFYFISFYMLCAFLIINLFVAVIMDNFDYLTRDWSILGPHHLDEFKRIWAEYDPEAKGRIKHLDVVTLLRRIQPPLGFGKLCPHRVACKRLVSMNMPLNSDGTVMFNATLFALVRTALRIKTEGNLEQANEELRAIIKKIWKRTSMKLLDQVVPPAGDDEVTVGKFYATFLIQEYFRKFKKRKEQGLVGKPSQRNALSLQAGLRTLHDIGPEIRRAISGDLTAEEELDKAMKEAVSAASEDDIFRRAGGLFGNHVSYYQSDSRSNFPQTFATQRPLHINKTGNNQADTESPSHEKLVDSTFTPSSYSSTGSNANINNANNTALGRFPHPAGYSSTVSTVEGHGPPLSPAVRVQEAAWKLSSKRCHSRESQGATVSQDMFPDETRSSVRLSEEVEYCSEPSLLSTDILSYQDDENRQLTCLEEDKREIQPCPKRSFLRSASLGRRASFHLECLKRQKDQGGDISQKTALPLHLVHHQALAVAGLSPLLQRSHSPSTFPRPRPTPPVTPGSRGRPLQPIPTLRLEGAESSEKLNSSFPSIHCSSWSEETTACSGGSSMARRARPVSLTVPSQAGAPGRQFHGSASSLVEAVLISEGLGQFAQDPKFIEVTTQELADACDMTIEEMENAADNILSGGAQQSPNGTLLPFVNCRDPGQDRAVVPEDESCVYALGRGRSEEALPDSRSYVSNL
T3 sequence (P54290 25-944 partner limits assumed, other chains not shown): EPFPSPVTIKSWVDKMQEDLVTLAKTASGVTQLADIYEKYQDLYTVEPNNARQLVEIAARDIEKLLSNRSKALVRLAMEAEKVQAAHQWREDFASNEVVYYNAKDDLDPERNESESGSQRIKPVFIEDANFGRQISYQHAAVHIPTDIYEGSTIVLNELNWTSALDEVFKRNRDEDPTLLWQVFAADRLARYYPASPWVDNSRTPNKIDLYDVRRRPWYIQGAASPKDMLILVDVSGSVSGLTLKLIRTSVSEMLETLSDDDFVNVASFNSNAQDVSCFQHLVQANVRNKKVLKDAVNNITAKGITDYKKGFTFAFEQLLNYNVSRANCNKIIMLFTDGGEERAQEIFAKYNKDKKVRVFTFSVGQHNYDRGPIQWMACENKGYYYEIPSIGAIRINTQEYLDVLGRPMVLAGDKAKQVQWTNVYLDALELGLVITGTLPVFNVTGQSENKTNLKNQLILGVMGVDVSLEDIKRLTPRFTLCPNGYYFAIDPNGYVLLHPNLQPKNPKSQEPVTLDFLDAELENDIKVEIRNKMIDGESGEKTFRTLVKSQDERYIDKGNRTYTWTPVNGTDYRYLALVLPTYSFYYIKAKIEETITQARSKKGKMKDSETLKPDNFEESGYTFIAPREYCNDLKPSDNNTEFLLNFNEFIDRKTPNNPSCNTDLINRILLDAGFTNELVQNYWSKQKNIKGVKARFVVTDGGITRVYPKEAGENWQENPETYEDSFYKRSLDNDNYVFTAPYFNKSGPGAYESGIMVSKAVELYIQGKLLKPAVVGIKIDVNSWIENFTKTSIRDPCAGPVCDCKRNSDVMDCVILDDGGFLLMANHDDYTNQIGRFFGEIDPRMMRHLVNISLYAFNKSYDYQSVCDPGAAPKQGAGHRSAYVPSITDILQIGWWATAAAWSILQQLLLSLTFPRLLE
T3 sequence (P54290 945-1091 partner limits assumed, other chains not shown): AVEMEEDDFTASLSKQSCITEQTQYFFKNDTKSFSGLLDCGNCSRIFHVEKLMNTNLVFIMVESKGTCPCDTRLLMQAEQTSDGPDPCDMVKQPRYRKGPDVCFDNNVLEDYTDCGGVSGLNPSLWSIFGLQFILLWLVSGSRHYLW

[4] = pKi alpha-1 1c, cloned human α1C receptor, LM(tk−) cell membranes
[5] = pKi alpha-2 2c, [3H]rauwolscine, human α2C receptor, LM(tk−) cells
[6] = [3H]nitrendipine, rat cardiac muscle membrane fragments, L-type calcium channel, read-out: pKi Ca (converted)
[7] = cloned human receptor in LM(tk-) cell membranes, SEM and n in lines below, read-out: pKi alpha-1 1c (converted)
[8] = pKi alpha-1 1c, cloned human receptor in LM(tk-) cell membranes, SEM and n in lines below
[9] = [3H]rauwolscine, LM(tk-) cell line L-α2C, SEM and n in lines below, read-out: pKi alpha-2 2c (converted)
[10] = [3H]nitrendipine, rat cardiac muscle membranes, SEM and n in lines below, read-out: pKi Ca (converted)
[11] = [3H]rauwolscine, human α2C receptor, LM(tk−) cells, read-out: pKi alpha-2 2c (converted)

CCC1=C(C(N)=O)C(c2ccc([N+](=O)[O-])cc2)C(C(=O)NCCCN2CCC(C#N)(c3ccccc3)CC2)=C(CC)N1 (racemic) [(±)-102, 5-Carboxamido-3-{N-[(4-cyano-4-phenylpiperidin-1-ly)propyl]carboxamido-2,6-diethyl-1,4-dihydro-4-(4-nitrophenyl)pyridine hydrochloride hydrate]
Ki [1, 4]: 0.0038 µM
Ki [2, 5]: 1.74 µM
Ki [3, 6]: 72.4 µM

CCC1=C(C(N)=O)C(c2ccc([N+](=O)[O-])cc2)C(C(=O)NCCCN2CCC(C#N)(c3ccccc3)CC2)=C(CC)N1 (single isomer, unassigned; (+)) [(+)-102]
Ki [1, 4]: 0.00263 µM
Ki [2, 5]: 3.31 µM
Ki [3, 6]: 1000 µM

CCC1=C(C(N)=O)C(c2ccc([N+](=O)[O-])cc2)C(C(=O)NCCCN2CCC(C#N)(c3ccccc3)CC2)=C(CC)N1 (single isomer, unassigned; (-)) [(−)-102]
Ki [1, 4]: 0.112 µM
Ki [2, 5]: 1.05 µM
Ki [3, 6]: 0.55 µM

COC(=O)C1=C(C)NC(C)=C(C(=O)NCCCN2CCC(c3ccccc3)(c3ccccc3)CC2)C1c1ccc(C(F)(F)F)cc1 (stereo not shown) [Example 1]
Ki [1, 7]: 0.0302 µM
Ki ([2]; pKi alpha-2 2c): 0.17 µM
Ki ([3]; pKi Ca): 6.61 µM

CCC1=C(C(=O)NCCCN2CCC(c3ccccc3)(c3ccccc3)CC2)C(c2ccc([N+](=O)[O-])cc2)C(C(=O)OCc2ccccc2)=C(C)N1 (stereo not shown) [Example 4, 5-Benzyloxycarbonyl-2-ethyl-1,4-dihydro-6-methyl-4-(4-nitrophenyl)-3-(N-(3-(4,4-diphenylpiperidin-1-yl)propyl)carboxamido) pyridine, Hydrochloride Salt, Hydrate]
Ki [1, 8]: 0.0676 µM
Ki [2, 9]: 0.501 µM
Ki [3, 10]: 0.977 µM

COC(=O)C1=C(C)NC(C)=C(C(=O)NCCCN2CCC(c3ccccc3)(c3ccccc3)CC2)C1c1ccncc1 (stereo not shown) [Example 5, 1,4-Dihydro-5-methoxycarbonyl-2,6-dimethyl-3-(N-(3-(4,4-diphenylpiperidin-1-yl)propyl)carboxamido)-4-(4-pyridyl)pyridine]
Ki [1, 7]: 0.0112 µM
Ki ([2]; pKi alpha-2 2c): 24.5 µM
Ki ([3]; pKi Ca): 4.57 µM

COC(=O)C1=C(C)NC(C)=C(C(=O)NCCCN2CCC(c3ccccc3)(c3ccccc3)CC2)C1C1CCCCC1 (stereo not shown) [Example 6]
Ki [1, 7]: 0.148 µM
Ki ([2]; pKi alpha-2 2c): 0.24 µM
Ki ([3]; pKi Ca): 1.58 µM

COC(=O)C1=C(C)NC(C)=C(C(=O)NCCCN2CCC(c3ccccc3)(c3ccccc3)CC2)C1c1ccc(-c2ccccc2)cc1 (stereo not shown) [Example 7]
Ki [1, 7]: 0.617 µM
Ki ([2]; pKi alpha-2 2c): 1.23 µM
Ki ([3]; pKi Ca): 0.871 µM

COC(=O)C1=C(C)NC(C)=C(C(=O)NCCCN2CCC(c3ccccc3)(c3ccccc3)CC2)C1Cc1ccccc1 (stereo not shown) [Example 8, 4-Benzyl-1,4-dihydro-3-methoxycarbonyl-2,6-dimethyl-5-(N-(3-(4,4-diphenylpiperidin-1-yl)propyl)carboxamido)pyridine]
Ki [1, 8]: 0.0759 µM
Ki [2, 9]: 0.339 µM
Ki [3, 10]: 11.5 µM

COC(=O)C1=C(C)NC(C)=C(C(=O)NCCCN2CCC(c3ccccc3)(c3ccccc3)CC2)C1c1cc[n+]([O-])cc1 (stereo not shown) [Example 9, 1,4-Dihydro-3-methoxycarbonyl-2,6-Dimethyl-4-(1-oxido-4-pyridyl)-5-(N-(3-(4,4-diphenylpiperidin-1-yl)propyl)carboxamido)pyridine]
Ki [1, 8]: 0.024 µM
Ki [2, 9]: 1.32 µM
Ki [3, 10]: 19.1 µM

COC(=O)C1=C(C)NC(C)=C(C(=O)NCCCN2CCC(c3ccccc3)(c3ccccc3)CC2)C1c1cccnc1 (stereo not shown) [Example 14, 1,4-Dihydro-3-methoxycarbonyl-2.6-dimethyl-5-(N-(3-(4,4-diphenylpiperidin-1-yl)propyl)carboxamido)-4-(3-pyridyl)pyridine]
Ki [1, 8]: 0.0407 µM
Ki [2, 9]: 1.1 µM

CCC1=C(C(N)=O)C(c2ccc([N+](=O)[O-])cc2)C(C(=O)NCCCN2CCC(c3ccccc3)(c3ccccc3)CC2)=C(C)N1 (stereo not shown) [Example 41, 3-Carboxamido-2-ethyl-1,4-dihydro-6-methyl-4-(4-nitrophenyl)-3-{N-[3-(4,4-diphenylpiperidin-1-yl)propyl]}carboxamidopyridine]
Ki [1, 8]: 0.00182 µM
Ki [2, 9]: 0.437 µM

CCC1=C(C(N)=O)C(c2ccc([N+](=O)[O-])cc2)C(C(=O)NCCCN2CCC(c3ccccc3)(c3ccccc3)CC2)=C(CC)N1 (stereo not shown) [Example 42, 5-carboxamido-2,6-diethyl-1,4-dihydro-4-(4-nitrophenyl)-3-{N-[3-(4,4-diphenylpiperidin-1-yl)propyl]}carboxamidopyridine]
Ki [1, 8]: 0.00126 µM
Ki ([2]; pKi alpha-2 2c, [3H]rauwolscine, LM(tk-) cell line L-α2C, SEM and n in lines below): 0.17 µM

CCC1=C(C(N)=O)C(c2ccc(S(C)(=O)=O)cc2)C(C(=O)NCCCN2CCC(c3ccccc3)(c3ccccc3)CC2)=C(CC)N1 (stereo not shown) [Example 116, 5-Carboxamido-2,6-diethyl-1,4-dihydro-4-(4-methanesulfonylphenyl)-3-(N-(3-(4,4-diphenylpiperidin-1-yl)propyl)carboxamido)-pyridine]
Ki [1, 4]: 0.00389 µM
Ki [2, 5]: 0.741 µM

CCC1=C(C(=O)NC)C(c2ccc([N+](=O)[O-])cc2)C(C(=O)NCCCN2CCC(c3ccccc3)(c3ccccc3)CC2)=C(CC)N1 (stereo not shown) [Example 128, 2,6-Diethyl-1,4-dihydro-5-(N-methyl)carboxamido-4-(4-nitrophenyl)-3-{N-[3-(4,4-diphenylpiperidin-1-yl)propyl]}carboxamidopyridine]
Ki [1, 4]: 0.00339 µM
Ki [2, 11]: 0.219 µM

CCC1=C(C(=O)OCCC#N)C(c2ccc([N+](=O)[O-])cc2)C(C(=O)NCCCN2CCC(c3ccccc3)(c3ccccc3)CC2)=C(COC)N1 (stereo not shown) [Example 135]
Ki ([1]; cloned human α1C receptor, LM(tk−) cell membranes, read-out: pKi alpha-1 1c (converted)): 0.105 µM
Ki [2, 11]: 0.339 µM

CCC1=C(C(=O)NCCCN2CCC(c3ccccc3)(c3ccccc3)CC2)C(c2ccc([N+](=O)[O-])cc2)C(C(=O)OC(C)(C)C)=C(COCCN=[N+]=[N-])N1 (stereo not shown) [Example 139]
Ki [1, 4]: 0.0234 µM
Ki [2, 5]: 0.309 µM

CCC1=C(C(=O)OCCC#N)C(c2ccc([N+](=O)[O-])cc2)C(C(=O)NCCCN2CCC(c3ccccc3)(c3ccccc3)CC2)=C(COCCN=[N+]=[N-])N1 (stereo not shown) [Example 141]
Ki [1, 4]: 0.00537 µM
Ki [2, 5]: 0.355 µM

CCNC(=O)C1=C(COCCN=[N+]=[N-])NC(CC)=C(C(=O)NCCCN2CCC(c3ccccc3)(c3ccccc3)CC2)C1c1ccc([N+](=O)[O-])cc1 (stereo not shown) [Example 147, 2-((2-Azidoethyl)oxy)methyl-6-ethyl-3-(N-ethyl)carboxamido-1,4-dihydro-4-(4-nitro)phenyl-5-(N-(3-(4,4-diphenylpiperidin-1-yl-)propyl))carboxamidopyridine]
Ki [1, 4]: 0.011 µM
Ki [2, 5]: 0.251 µM

CCC1=C(C(=O)NCCCN2CCC(c3ccccc3)(c3ccccc3)CC2)C(c2ccc([N+](=O)[O-])cc2)C(C(N)=O)=C(COCCN=[N+]=[N-])N1 (stereo not shown) [Example 149, 2-((2-Azidoethyl)oxy)methyl-3-carboxamido-6-ethyl-1,4-dihydro-4-(4-nitro) phenyl-5-(N-(3-(4,4-diphenylpiperidin-1-yl)propyl))carboxamidopyridine]
Ki [1, 4]: 0.0055 µM
Ki [2, 5]: 0.257 µM

CCC1=C(C(=O)NCCCN2CCC(c3ccccc3)(c3ccccc3)CC2)C(c2ccc([N+](=O)[O-])cc2)C(C(=O)NC)=C(COCCN=[N+]=[N-])N1 (stereo not shown) [Example 151, 2-((2-Azidoethyl)oxy)methyl-6-ethyl-1,4-dihydro-3-(N-methyl)carboxamido-4-(4-nitro)phenyl-5-(N-(3-(4,4-diphenylpiperidin-1-yl)propyl))carboxamidopyridine]
Ki [1, 4]: 0.0123 µM
Ki [2, 5]: 0.209 µM
